Results reported in patent publication US7041785B1, “B1-bradykinin receptor antagonists and use thereof” (Université de Sherbrooke, priority 1996, dated 2006).
Non-standard residues stand in square brackets, D forms with d. Residues, ends and D or L forms follow the SMILES beside them. d2Nal = N[C@H](Cc1ccc2ccccc2c1)C(=O)O; Hyp = O=C(O)[C@@H]1C[C@@H](O)CN1; dTic = O=C(O)[C@H]1Cc2ccccc2CN1; Ahx = NCCCCCC(=O)O; Sar = CNCC(=O)O

Molecular target: T1, angiotensin-converting enzyme (ACE) from rabbit lungs (Oryctolagus cuniculus, UniProt P12822)
T1 sequence (P12822 34-1310): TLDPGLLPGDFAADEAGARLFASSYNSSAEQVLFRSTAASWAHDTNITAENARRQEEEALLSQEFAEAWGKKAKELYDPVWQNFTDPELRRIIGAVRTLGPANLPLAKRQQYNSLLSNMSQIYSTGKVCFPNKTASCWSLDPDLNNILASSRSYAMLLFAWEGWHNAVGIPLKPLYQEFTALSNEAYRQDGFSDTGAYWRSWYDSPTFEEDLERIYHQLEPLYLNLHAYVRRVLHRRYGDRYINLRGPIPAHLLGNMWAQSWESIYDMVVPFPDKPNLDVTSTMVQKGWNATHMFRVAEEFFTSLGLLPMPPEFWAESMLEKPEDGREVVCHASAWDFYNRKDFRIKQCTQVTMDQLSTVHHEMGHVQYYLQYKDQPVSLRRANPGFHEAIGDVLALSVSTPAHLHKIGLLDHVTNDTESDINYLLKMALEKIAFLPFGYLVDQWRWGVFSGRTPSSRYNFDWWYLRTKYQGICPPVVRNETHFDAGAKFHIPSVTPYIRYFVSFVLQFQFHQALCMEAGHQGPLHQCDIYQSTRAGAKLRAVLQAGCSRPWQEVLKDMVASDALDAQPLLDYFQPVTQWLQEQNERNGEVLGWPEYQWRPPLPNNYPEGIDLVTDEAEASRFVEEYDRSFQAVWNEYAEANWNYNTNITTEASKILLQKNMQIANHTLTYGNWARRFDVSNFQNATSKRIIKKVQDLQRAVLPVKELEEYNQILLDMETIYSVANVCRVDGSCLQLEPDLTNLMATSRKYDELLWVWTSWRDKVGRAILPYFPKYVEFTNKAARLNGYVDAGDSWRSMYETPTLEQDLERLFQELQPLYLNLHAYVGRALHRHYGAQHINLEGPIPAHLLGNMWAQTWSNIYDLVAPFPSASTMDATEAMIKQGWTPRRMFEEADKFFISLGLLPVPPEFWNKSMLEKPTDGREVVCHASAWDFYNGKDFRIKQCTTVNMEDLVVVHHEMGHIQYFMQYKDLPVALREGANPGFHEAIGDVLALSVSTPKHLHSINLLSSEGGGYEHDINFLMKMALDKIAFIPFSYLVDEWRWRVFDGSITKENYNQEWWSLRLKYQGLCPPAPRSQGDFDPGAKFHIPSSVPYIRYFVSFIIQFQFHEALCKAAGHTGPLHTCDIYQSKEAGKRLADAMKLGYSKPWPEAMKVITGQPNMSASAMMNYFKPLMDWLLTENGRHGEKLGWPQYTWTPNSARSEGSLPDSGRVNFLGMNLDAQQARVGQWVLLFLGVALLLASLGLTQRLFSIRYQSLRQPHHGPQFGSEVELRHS
Test: Metabolic degradation by purified angiotensin-converting enzyme, HPLC analysis
Assay type: in vitro ADME
Set-up: purified angiotensin-converting enzyme (ACE) from rabbit lungs; purchased Sigma, St-Louis, Mo; host or cells: purified from rabbit lungs
Description: The metabolic stability of various kinin-related peptides was evaluated by incubating the peptide in the presence of purified angiotensin-converting enzyme (ACE) from rabbit lungs (purchased from Sigma, St-Louis, Mo.) dissolved in phosphate buffered saline (PBS) (50 mmol/L, pH 7.5 containing 300 mmoL/L NaCl); the final concentration of enzyme was 45 μg/mL. The experimental protocol for the measurement of ACE activity has been described elsewhere^15,16. Briefly, 200 μmol/L of peptides (40 μL) were placed in a PBS buffer and incubated for 5 min at 37EC before adding 8.5 μL of ACE (total volume of the reaction medium; 190 μL). Samples were withdrawn at 30 min intervals, immersed in boiling water for 5 min, then cooled on ice and centrifuged (5 min) before proceeding to analysis of peptides by high pressure liquid chromatography (HPLC). Results of ACE metabolism are expressed in percent of kinin degradation following the incubation (30 min) of kinin substrates with the enzyme.
Pure peptides and metabolic products were analysed by reverse-phas HPLC on a C18 μBondapak column (4.6 mm×25 cm) (Waters) of 10-μm particle size. The peptides and their fragments were eluted at the rate of 2.0 mL/min. with a linear gradient ranging from 5 to 65% of acetonitrile/TFA 0.05%/water over 20 min. at room temperature. The elution positions of these peptides were determined by following the absorbance at 214 nm. For each assay, 50 μL of the reaction medium (treated or not with ACE) were extracted and injected into the column. Concentrations of the peaks products, different from the peaks of the peptide substrate, were estimated using a computer software program (Baseline 810; Waters) that controlled also all the chromatography operations. Isolated metabolites and substrates were collected and identified by Electrospray mass spectrometry (positive mode).

| SMILES | Less susceptible to ACE proteolytic degradation, relative to Lys(Leu8)desArgBK |
| --- | --- |
| CC(C)C[C@H](NC(=O)[C@H]1Cc2ccccc2CN1C(=O)[C@H](CO)NC(=O)[C@H](Cc1ccccc1)NC(=O)CNC(=O)[C@@H]1CCCN1C(=O)[C@@H]1CCCN1C(=O)[C@@H](N)CCCNC(=N)N)C(=O)O [Compound 8, (D-Tic^7, Leu^8)desArg^9BK] (H-RPPGFS[dTic]L-OH; N-terminus and C-terminus assumed) | 2-5 times |
| CNCC(=O)N[C@@H](CCCNC(=N)N)C(=O)N1CCC[C@H]1C(=O)N1CCC[C@H]1C(=O)NCC(=O)N[C@@H](Cc1ccccc1)C(=O)N[C@@H](CO)C(=O)N1Cc2ccccc2C[C@@H]1C(=O)N[C@@H](CC(C)C)C(=O)O [Compound 9, Sar(D-Tic^7, Leu^8)desArg^9BK] (H-[Sar]RPPGFS[dTic]L-OH; N-terminus and C-terminus assumed) | 2-5 times |
| CC(C)C[C@H](NC(=O)[C@H]1Cc2ccccc2CN1C(=O)[C@H](CO)NC(=O)[C@H](Cc1ccccc1)NC(=O)CNC(=O)[C@@H]1CCCN1C(=O)[C@@H]1CCCN1C(=O)[C@H](CCCNC(=N)N)NC(=O)[C@H](N)CCCNC(=N)N)C(=O)O [Compound 12, D-Arg(D-Tic^7, Leu^8)desArg^9BK] (H-[dR]RPPGFS[dTic]L-OH; N-terminus and C-terminus assumed) | 2-5 times |
| CC[C@H](C)[C@H](NC(=O)[C@H]1Cc2ccccc2CN1C(=O)[C@H](CO)NC(=O)[C@H](Cc1ccccc1)NC(=O)CNC(=O)[C@@H]1CCCN1C(=O)[C@@H]1CCCN1C(=O)[C@H](CCCNC(=N)N)NC(=O)[C@H](N)CCCNC(=N)N)C(=O)O [Compound 13, D-Arg(D-Tic^7, Ile^8)desArg^9BK] (H-[dR]RPPGFS[dTic]I-OH; N-terminus and C-terminus assumed) | 2-5 times |
| CC(C)C[C@H](NC(=O)[C@H]1Cc2ccccc2CN1C(=O)[C@H](CO)NC(=O)[C@H](Cc1ccccc1)NC(=O)CNC(=O)[C@@H]1C[C@@H](O)CN1C(=O)[C@@H]1CCCN1C(=O)[C@H](CCCNC(=N)N)NC(=O)[C@H](N)CCCNC(=N)N)C(=O)O [Compound 17, D-Arg(Hyp^3, D-Tic^7, Leu^8)desArg^9BK] (H-[dR]RP[Hyp]GFS[dTic]L-OH; N-terminus and C-terminus assumed) | 2-5 times |
| CC(=O)N[C@@H](CCCCN)C(=O)N[C@@H](CCCNC(=N)N)C(=O)N1CCC[C@H]1C(=O)N1CCC[C@H]1C(=O)NCC(=O)N[C@@H](Cc1ccccc1)C(=O)N[C@@H](CO)C(=O)N[C@H](Cc1ccc2ccccc2c1)C(=O)N[C@@H](CC(C)C)C(=O)O [Compound 18, AcLys(D-βNal^7, Leu^8)desArg^9BK] (Ac-KRPPGFS[d2Nal]L-OH; C-terminus assumed) | 2-5 times |
| CC[C@H](C)[C@H](NC(=O)[C@@H](Cc1ccc2ccccc2c1)NC(=O)[C@H](CO)NC(=O)[C@H](Cc1ccccc1)NC(=O)CNC(=O)[C@@H]1CCCN1C(=O)[C@@H]1CCCN1C(=O)[C@H](CCCN=C(N)N)NC(=O)[C@H](CCCCN)NC(C)=O)C(=O)O [Compound 19, AcLys(D-βNal^7, Ile^8)desArg^9BK] (Ac-KRPPGFS[d2Nal]I-OH) | 2-5 times |
| CC[C@H](C)[C@H](NC(=O)[C@@H](Cc1ccc2ccccc2c1)NC(=O)[C@H](CO)NC(=O)[C@H](Cc1ccccc1)NC(=O)CNC(=O)[C@@H]1CCCN1C(=O)[C@@H]1CCCN1C(=O)[C@H](CCCNC(=N)N)NC(=O)[C@H](N)CCCNC(=N)N)C(=O)O [Compound 23, D-Arg(D-βNal^7, Ile^8)desArg^9BK] (H-[dR]RPPGFS[d2Nal]I-OH; N-terminus and C-terminus assumed) | 2-5 times |
| CC(C)C[C@H](NC(=O)[C@@H](Cc1ccc2ccccc2c1)NC(=O)[C@H](CO)NC(=O)[C@H](Cc1ccccc1)NC(=O)CNC(=O)[C@@H]1CCCN1C(=O)[C@@H]1CCCN1C(=O)[C@H](CCCNC(=N)N)NC(=O)[C@H](N)CCCNC(=N)N)C(=O)O [Compound 24, D-Arg(D-βNal^7, Leu^8)desArg^9BK] (H-[dR]RPPGFS[d2Nal]L-OH; N-terminus and C-terminus assumed) | 2-5 times |
| CC[C@H](C)[C@H](NC(=O)[C@@H](Cc1ccc2ccccc2c1)NC(=O)[C@H](CO)NC(=O)[C@H](Cc1ccccc1)NC(=O)CNC(=O)[C@@H]1CCCN1C(=O)[C@@H]1CCCN1C(=O)[C@H](CCCNC(=N)N)NC(=O)[C@H](N)CCCCN)C(=O)O [Compound 25, D-Lys(D-βNal^7, Ile^8)desArg^9BK] (H-[dK]RPPGFS[d2Nal]I-OH; N-terminus and C-terminus assumed) | 2-5 times |
| CC[C@H](C)[C@H](NC(=O)[C@@H](Cc1ccc2ccccc2c1)NC(=O)[C@H](CO)NC(=O)[C@H](Cc1ccccc1)NC(=O)CNC(=O)[C@@H]1CCCN1C(=O)[C@@H]1CCCN1C(=O)[C@H](CCCNC(=N)N)NC(=O)CNC)C(=O)O [Compound 26, Sar(D-βNal^7, Ile^8)desArg^9BK] (H-[Sar]RPPGFS[d2Nal]I-OH; N-terminus and C-terminus assumed) | 2-5 times |
| CC(=O)N[C@@H](Cc1ccc(O)cc1)C(=O)NCCCCCC(=O)N[C@@H](CCCCN)C(=O)N[C@@H](CCCNC(=N)N)C(=O)N1CCC[C@H]1C(=O)N1CCC[C@H]1C(=O)NCC(=O)N[C@@H](Cc1ccccc1)C(=O)N[C@@H](CO)C(=O)N1CCC[C@H]1C(=O)N[C@@H](CC(C)C)C(=O)O [Compound 27, AcTyrεAhxLys(Leu^8)desArg^9BK] | 2-5 times |
| CNCC(=O)N[C@@H](Cc1ccc(O)cc1)C(=O)NCCCCCC(=O)N[C@@H](CCCCN)C(=O)N[C@@H](CCCNC(=N)N)C(=O)N1CCC[C@H]1C(=O)N1CCC[C@H]1C(=O)NCC(=O)N[C@@H](Cc1ccccc1)C(=O)N[C@@H](CO)C(=O)N1CCC[C@H]1C(=O)N[C@@H](CC(C)C)C(=O)O [Compound 28, SarTyrεAhxLys(Leu^8)desArg^9BK] | 2-5 times |
| CC[C@H](C)[C@H](NC(=O)[C@@H](Cc1ccc2ccccc2c1)NC(=O)[C@H](CO)NC(=O)[C@H](Cc1ccccc1)NC(=O)CNC(=O)[C@@H]1CCCN1C(=O)[C@@H]1CCCN1C(=O)[C@H](CCCNC(=N)N)NC(=O)[C@H](CCCCN)NC(=O)CCCCCNC(=O)[C@H](Cc1ccc(O)cc1)NC(=O)CNC)C(=O)O [Compound 29, SarTyrεAhxLys(D-βNal^7, Ile^8)desArg^9BK] (H-[Sar]Y[Ahx]KRPPGFS[d2Nal]I-OH; N-terminus and C-terminus assumed) | 2-5 times |
